US7795295B2, “Small molecule inhibition of PDZ-domain interaction” (The Regents of the University of California, priority 2004, dated 2010)

What was measured:
H460 cells = assay: Apoptosis by Annexin V FITC flow cytometry, H460; type: cell-based, human; settings: 10 μM for 3 days
Description: (§1) Compound 1 and other compounds of Tables 1A and 1B were similarly tested for apoptotic effects to represent the inhibitory effects of compounds on interaction between the PDZ domain of the Dishevelled (Dvl) protein and the Fz protein (Wnt receptor). Cell lines H460 and LOX were utilized, with the test compound being applied at 10 μM for 3 days. Cultured cells treated with the test compounds in the culture media were harvested by trypsinization and stained using an Annexin V FITC Apoptosis Detection kit (Oncogene Science, Cambridge, Mass.), according to the manufacturer's protocol. Stained cells were immediately analyzed by flow cytometry (FACScan; Becton-Dickinson, Franklin Lake, N.J.).

LOX cells = assay: Apoptosis by Annexin V FITC flow cytometry, LOX; type: cell-based, human; settings: 10 μM for 3 days
Description: as §1

[1] = Assay 3, library 3, control 7.59
[2] = Assay 3, library 3, control 8.81
[3] = Assay 1, library 1, control 9.22
[4] = Assay 1, library 1, control 10.85
[5] = Assay 2, library 2, control 10.24
[6] = Assay 2, library 2, control 9.67

SMILES	apoptosis, % H460 (H460 cells; [1]) [%]	apoptosis, % LOX (LOX cells; [2]) [%]	apoptosis, % H460 (H460 cells; [3]) [%]	apoptosis, % LOX (LOX cells; [4]) [%]	apoptosis, % H460 (H460 cells; [5]) [%]	apoptosis, % LOX (LOX cells; [6]) [%]
Cc1cc2[nH]c(C(O)C(C)C)c(-c3ccccc3)c2cc1C(=O)O (centres unmarked) [Compound 20]	28.9	11.77				
Cc1cc2[nH]c(C(O)CC(C)C)c(CCc3ccccc3)c2cc1C(=O)O (centres unmarked) [Compound 2]			34.21	36.32		
Cc1cc2[nH]c(C(=O)CCCc3ccccc3)c(-c3ccccc3)c2cc1C(=O)O [Compound 50]	41.75	72.47				
CCCCC(O)c1[nH]c2cc(C)c(C(=O)O)cc2c1CCCc1ccccc1 (centres unmarked) [Compound 15]					37.4	17.57
Cc1cc2[nH]c(C(=O)CCc3ccccc3)c(CCc3ccccc3)c2cc1C(=O)O [Compound 34]			76.59	44.73		
Cc1cc2[nH]c(C(=O)CCc3ccccc3)c(-c3ccccc3)c2cc1C(=O)O [Compound 49]	82.53	96.34				
Cc1cc2[nH]c(C(O)C3CCCCC3)c(CCc3ccccc3)c2cc1C(=O)O (centres unmarked) [Compound 5]			24.39	27.15		
Cc1cc2[nH]c(C(=O)c3ccccc3)c(CCc3ccccc3)c2cc1C(=O)O [Compound 32]			21.13	15.36		
Cc1cc2[nH]c(C(O)C3CCCCC3)c(-c3ccccc3)c2cc1C(=O)O (centres unmarked) [Compound 22]	16.22	15.47				
CCCCC(=O)c1[nH]c2cc(C)c(C(=O)O)cc2c1CCCO [Compound 41]					19.96	12.69
Cc1cc2[nH]c(C(=O)C3CCCCC3)c(-c3ccccc3)c2cc1C(=O)O [Compound 47]	49.77	73.02				
Cc1cc2[nH]c(C(=O)CC3CCCC3)c(CCc3ccccc3)c2cc1C(=O)O [Compound 29]			64.1	74.11		
Cc1cc2[nH]c(C(=O)CCCC(=O)O)c(CCc3ccccc3)c2cc1C(=O)O [Compound 31]			9.07	12.06		
Cc1cc2[nH]c(C(O)CC3CCCC3)c(CCc3ccccc3)c2cc1C(=O)O (centres unmarked) [Compound 4]			36.41	32.52		
CCCCCc1c(C(=O)CCCC)[nH]c2cc(C)c(C(=O)O)cc12 [Compound 35]					34.73	23.23
CCCCC(=O)c1[nH]c2cc(C)c(C(=O)O)cc2c1CC(C)C [Compound 36]					41.48	13.51
Cc1cc2[nH]c(C(O)CC(C)(C)C)c(-c3ccccc3)c2cc1C(=O)O (centres unmarked) [Compound 23]	12.09	11.34				
CCCCC(O)c1[nH]c2cc(C)c(C(=O)O)cc2c1CCCO (centres unmarked) [Compound 16]					15.7	14.5
CCC(C)C(O)c1[nH]c2cc(C)c(C(=O)O)cc2c1CCc1ccccc1 (centres unmarked) [Compound 3]			79.9	56.29		
CCCCC(O)c1[nH]c2cc(C)c(C(=O)O)cc2c1C1CCCCC1 (centres unmarked) [Compound 12]					28.8	15.83
Cc1cc2[nH]c(C(=O)CC3CCCC3)c(-c3ccccc3)c2cc1C(=O)O [Compound 46]	39.06	38.6				
CCCCC(=O)c1[nH]c2cc(C)c(C(=O)O)cc2c1Cc1ccccc1 [Compound 39]					42.9	29.35
CCCCC(=O)c1[nH]c2cc(C)c(C(=O)OC)cc2c1CCc1ccccc1 [Compound 7]			13.92	17.96		

SMILES	apoptosis, % H460 (H460 cells; [1]) [%]	apoptosis, % LOX (LOX cells; [2]) [%]	apoptosis, % H460 (H460 cells; [3]) [%]	apoptosis, % LOX (LOX cells; [4]) [%]	apoptosis, % H460 (H460 cells; [5]) [%]	apoptosis, % LOX (LOX cells; [6]) [%]
Cc1cc2[nH]c(C(=O)C(C)C)c(-c3ccccc3)c2cc1C(=O)O [Compound 45]	96.96	86.71				
CCC(C)C(=O)c1[nH]c2cc(C)c(C(=O)O)cc2c1-c1ccccc1 (centres unmarked) [Compound 44]	37.38	54.13				
CCCCC(=O)c1[nH]c2cc(C)c(C(=O)O)cc2c1C1CCCCC1 [Compound 37]					45.05	7.49
CCCCC(O)c1[nH]c2cc(C)c(C(=O)O)cc2c1Cc1ccccc1 (centres unmarked) [Compound 14]					24.26	11.88
CCCCC(O)c1[nH]c2cc(C)c(C(=O)O)cc2c1CCCC(=O)O (centres unmarked) [Compound 17]					18.93	15.62
CCC(C)C(O)c1[nH]c2cc(C)c(C(=O)O)cc2c1-c1ccccc1 (centres unmarked) [Compound 19]	44.15	47.62				
Cc1cc2[nH]c(C(=O)Cc3ccccc3)c(CCc3ccccc3)c2cc1C(=O)O [Compound 33]			12.66	15.03		
CCCCC(=O)c1[nH]c2cc(C)c(C(=O)O)cc2c1CCc1ccccc1 [Compound 26]			16.13	16.86		
CCCCC(=O)c1[nH]c2cc(C)c(C(=O)O)cc2c1-c1ccccc1 [Compound 38]					51.61	13.58
CCCCCc1c(C(O)CCCC)[nH]c2cc(C)c(C(=O)O)cc12 (centres unmarked) [Compound 10]					39.64	19.08
Cc1cc2[nH]c(C(O)CC3CCCC3)c(-c3ccccc3)c2cc1C(=O)O (centres unmarked) [Compound 21]	31.22	19.99				
Cc1cc2[nH]c(C(O)CCCC(=O)O)c(CCc3ccccc3)c2cc1C(=O)O (centres unmarked) [Compound 6]			8.62	9.22		
Cc1cc2[nH]c(C(=O)CC(C)C)c(-c3ccccc3)c2cc1C(=O)O [Compound 43]	34.22	20.24				
Cc1cc2[nH]c(C(O)CC(C)C)c(-c3ccccc3)c2cc1C(=O)O (centres unmarked) [Compound 18]	21.11	9.53				
CCCCC(O)c1[nH]c2cc(C)c(C(=O)O)cc2c1CC(C)C (centres unmarked) [Compound 11]					24.48	14.83
CCC(C)C(=O)c1[nH]c2cc(C)c(C(=O)O)cc2c1CCc1ccccc1 (centres unmarked) [Compound 28]			58.76	38.53		
Cc1cc2[nH]c(C(=O)C3CCCCC3)c(CCc3ccccc3)c2cc1C(=O)O [Compound 30]			78.07	55.76		
Cc1cc2[nH]c(C(O)CCc3ccccc3)c(-c3ccccc3)c2cc1C(=O)O (centres unmarked) [Compound 24]	26.58	26.56				
Cc1cc2[nH]c(C(=O)CC(C)C)c(CCc3ccccc3)c2cc1C(=O)O [Compound 27]			16.91	18.5		
CCCCC(O)c1[nH]c2cc(C)c(C(=O)O)cc2c1-c1ccccc1 (centres unmarked) [Compound 13]					35.51	17.84
Cc1cc2[nH]c(C(=O)CC(C)(C)C)c(-c3ccccc3)c2cc1C(=O)O [Compound 48]	24.48	15.14				
CCCCC(=O)c1[nH]c2cc(C)c(C(=O)O)cc2c1CCCc1ccccc1 [Compound 40]					23.93	16.5
CCCCC(=O)c1[nH]c2cc(C)c(C(=O)O)cc2c1CCCC(=O)O [Compound 42]					49.41	15.22
